US20020115642A1, “Beta-lactam antibiotics” (priority 2000, published 2002)
Values after ≈ are worked out from the molar mass of the structure shown. Where two headings read alike, the source gives them in different places.

Legend:
E. coli/TEM-1 = test: Susceptibility testing (MIC, modified NCCLS method); format: cell-based, Escherichia coli; details: Escherichia coli
Outline: (§1)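 Growth inhibition was scored by optical density increase at 600 nm. Bacteria in broth were added at roughly 1-1.5×10^6 cells/ml to 20 twofold serial dilutions of compound, prepared from water or DMSO stocks. The NCCLS MIC procedure was modified for high throughput.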

E. coli N = test: as above; format: cell-based, Escherichia coli; details: Escherichia coli; E. coli (N); read-out: MIC
Outline: as §1

P. aeruginosa = test: as above; format: cell-based, Pseudomonas aeruginosa; details: Pseudomonas aeruginosa, read-out: MIC
Method: The NCCLS (National Committee for Clinical Laboratory Standards) method to determine MIC's of antimicrobial compounds was modified for high-throughput screening. All stocks of tested compounds were prepared in either water or in dimethylsulfoxide (DMSO), depending on the solubility. […] Briefly 20 2-fold serial dilutions of testing compounds from the highest concentration were made in a 384-well microtiter plate. Each well was inoculated with testing bacteria in broth to a final concentration of approximately 1-1.5×10^6 cells/ml. Bacterial growth was determined by the increase of optical density at 600 nm using a microplate reader (Tecan SpectraFluor Plus).

Staphylococcus aureus = test: as above; format: cell-based; details: Staphylococcus aureus, read-out: MIC
Outline: as §1

E. aerogenes = test: as above; format: cell-based, Enterobacter aerogenes; details: Klebsiella aerogenes, ATCC35028; E. aerogenes ATCC 35028; read-out: MIC
Outline: as §1

E. cloacae = test: as above; format: cell-based, Enterobacter cloacae; details: Enterobacter cloacae, ATCC23355; E. cloacae ATCC 23355; read-out: MIC
Outline: as §1

K. pneumoniae = test: as above; format: cell-based, Klebsiella pneumoniae; details: Klebsiella pneumoniae, read-out: MIC
Outline: as §1

E. faecalis = test: as above; format: cell-based, Enterococcus faecalis; details: Enterococcus faecalis, read-out: MIC
Outline: as §1

[1] = tested on: TEM-52, an antibiotic-resitant E. coli; details: TEM-52 versus wild-type; Fletcher (2001); cited from earlier work

Compound | melting point | MIC (E. coli/TEM-1) | MIC (E. coli N) | MIC (P. aeruginosa; ATCC21726, P. aeruginosa ATCC 21726) | MIC (P. aeruginosa; ATCC29872, P. aeruginosa ATCC 29872) | MIC (Staphylococcus aureus; ATCC11632, S. aureus ATCC 11632) | MIC (Staphylococcus aureus; ATCC33594, S. aureus ATCC 33594) | MIC (Staphylococcus aureus; ATCC700260, S. aureus ATCC 700260) | MIC (Staphylococcus aureus; ATCC700699, S. aureus ATCC 700699) | MIC (E. aerogenes) | MIC (E. cloacae) | MIC (K. pneumoniae; ATCC51503, K. pneumoniae ATCC 51503) | MIC (K. pneumoniae; ATCC700721, K. pneumoniae ATCC 700721) | MIC (E. faecalis; ATCC49757, E. faecalis ATCC 49757) | MIC (E. faecalis; ATCC700802, E. faecalis ATCC 700802) | fold more resistant than wild-type E coli [1]
O=C(Cn1cnnn1)NC1C(=O)N2C(C(=O)O)=C(COc3cc(Cl)ccc3Oc3ccc(Cl)cc3Cl)CS[C@H]12 (stereo partly shown) [Compound 29, 3-(2-(2,4-Dichlorophenoxy)-5-chlorophenoxy)methyl-7-(1-tetrazoleacetamido)-3-cephem-4-carboxylic acid] | 112 °C | 0.063 µg/mL (≈ 0.103 µM) | 2 µg/mL (≈ 3.27 µM) | > 32 µg/mL | > 32 µg/mL | 0.063 µg/mL (≈ 0.103 µM) | 0.063 µg/mL (≈ 0.103 µM) | 0.063 µg/mL (≈ 0.103 µM) | 0.125 µg/mL (≈ 0.204 µM) | 32 µg/mL (≈ 52.3 µM) | 1 µg/mL (≈ 1.63 µM) | 8 µg/mL (≈ 13.1 µM) | 1 µg/mL (≈ 1.63 µM) | 8 µg/mL (≈ 13.1 µM) | 16 µg/mL (≈ 26.2 µM) | 
CO/N=C(\C(=O)N[C@@H]1C(=O)N2C(C(=O)O)=C(COC(C)=O)CS[C@H]12)c1csc(N)n1 [cefotaxime] |  |  |  |  |  |  |  |  |  |  |  |  |  |  |  | more than 500 fold
